Data published in US20250129486A1, “A METHOD FOR MANUFACTURING PHARMACEUTICAL GRADE HYPOCHLOROUS ACID” (priority 2022, published 2025).

Tests used:
[1] = Storage stability of HOCl solution by container; assay type: physicochemical; settings: any form of plastic container
Excerpt: The present invention relates to a method of manufacture of pharmaceutical grade hypochlorous acid (HOCl) solution. The solution is free of toxic by-products and is manufactured by means of a process that is novel. Furthermore, the manufacturing process results in high concentration HOCl solution at a pre-determined pH level. The solution is stable when kept in UV-protected glass for two years. Due to the method and process of manufacture, the solution is of a pharmaceutical grade.
HOCl+UV light→OH+Cl^−+O3 [Reaction Formula 11] • It is therefore essential to store solutions containing HOCl in UV-protected inert containers. • ii) The container in which the solutions are kept should be made of glass. […] Glass containers avoid oxidation reactions between the container and HOCl. • iii) Stable HOCl production requires platinum grade reactants, including pure water without any organic and inorganic compounds or ions, as the oxidation of these compounds will deplete the HOCl concentration in the solution. • iv) Correcting the solution pH to between 4.0-5.80 immediately after manufacturing, through real-time buffering. Variation outside pH 4.0 to 5.80 will not only result in the dissociation of HOCl into Cl2 or OCl^− but will provide the environment for the decomposition of HOCl to form chlorate. It is therefore of utmost importance that this pH level

[2] = cited from earlier work

For `OCl` [HOCl, hypochlorous acid], the “Decomposition of HOCl in container” value [1] is listed as “marked decomposition” and the pKa [2] is listed as 7.53.
